Assay results from paper PMC8765781, “A platform of assays for the discovery of anti-Zika small-molecules with activity in a 3D-bioprinted outer-blood-retina model” (PLoS ONE, 2022).
Read-outs that look alike come from different tables or passages of the source.

System: wild-type ZIKV (Ugandan MR766 strain) in Vero cells
Experiment: ZIKV cytopathic effect (CPE) inhibition qHTS assay, CellTiter-Glo readout
Type: cell-based, Zika virus
Conditions: for Emax: read-out: Max response
[1] = Zika virus, Vero, read-out: Log AC50 (M) (converted)
[2] = Zika virus, Vero, read-out: Log AC50 (converted)

Row | Compound | CC-v2 (curve class classification of the dose response curve) | Efficacy | AC50 (Zika virus, Vero) | AC50 [1] | Identified as active in CPE assay validation set | AC50 | Curve class | AC50 [2] | Emax (Zika virus, Vero)
1 | O=S(=O)(c1ccc(S(=O)(=O)n2cnc3ccccc32)cc1)N1CCCCCC1 [MLS000033224-02] | -3 | -29.668 | 3.17e-05 M | 3.17e-05 M |  |  |  |  | 
2 | O=c1c2ccccc2nc2n1CCc1c-2[nH]c2ccccc12 [NCGC00015892-08] | -2.2 | -34.451 | 4.11e-05 M | 4.11e-05 M |  |  |  |  | 
3 | COc1ccc(CCN(C)CCCC(C#N)(c2ccc(OC)c(OC)c2)C(C)C)cc1OC (centres unmarked) [NCGC00016083, Verapamil, reference compound] |  |  |  |  | identified |  |  |  | 
4 | COc1ccc2c(OC)c3ccoc3nc2c1OC [NCGC00016333-05] |  | -23.663 | 1.84e-05 M | 1.84e-05 M |  |  |  |  | 
5 | C[S+]([O-])c1ccc(-c2nc(-c3ccncc3)c(-c3ccc(F)cc3)[nH]2)cc1 (centres unmarked) [NCGC00025035, SB-203580, reference compound] |  |  |  |  | identified |  |  |  | 
6 | CCOC(=O)C1=C(N)Oc2ccc(Br)cc2C1C(C#N)C(=O)OCC (centres unmarked) [NCGC00025207-15] |  | -30.652 |  | 7.31e-05 M |  |  |  |  | 
7 | CCOC(=O)C1=C(N)Oc2ccc(Br)cc2C1C(C#N)C(=O)OCC (centres unmarked) [NCGC00025207-16] |  | -33.191 |  |  |  | 3.26e-05 M | -3 | 3.26e-05 M | -2.2%
8 | C[C@H]1O[C@@H](O[C@H]2[C@@H](O)C[C@H](O[C@H]3[C@@H](O)C[C@H](O[C@H]4CC[C@@]5(C)[C@H](CC[C@@H]6[C@@H]5C[C@@H](O)[C@]5(C)[C@@H](C7=CC(=O)OC7)CC[C@]65O)C4)O[C@@H]3C)O[C@@H]2C)C[C@H](O)[C@@H]1O [NCGC00090797-15] |  | -19.155 | 8.2e-06 M | 8.2e-06 M |  |  |  |  | 
9 | O=C1Nc2ccc(Cl)cc2[C@@](C#CC2CC2)(C(F)(F)F)O1 [NCGC00159337, efavirenz, reference compound] |  |  |  |  | identified |  |  |  | 
10 | COc1ccc2cc1Oc1ccc(cc1)C[C@H]1c3c(cc4c(c3Oc3cc5c(cc3OC)CCN(C)[C@@H]5C2)OCO4)CCN1C [NCGC00161621-05] |  | -31.519 | 6.51e-05 M | 6.51e-05 M |  |  |  |  | 
11 | CN(C)CC1CCn2c(c(C3=C(c4cn(C)c5ccccc45)C(=O)NC3=O)c3ccccc32)C1 (centres unmarked) [NCGC00163696-04] |  | -28.697 | 3.26e-05 M | 3.26e-05 M |  |  |  |  | 
12 | O=C1c2c(O[C@@H]3O[C@H](CO)[C@@H](O)[C@H](O)[C@H]3O)cc(O)cc2OC1(O)Cc1ccc(O)cc1 (some centres unmarked) [NCGC00168800-03] | -3 | -41.876 | 3.17e-05 M | 3.17e-05 M |  |  |  |  | 
13 | C=C1C(=O)O[C@@H]2C3C(=C(C)[C@@H](O)[C@@H](OC(=O)/C(=C/C)COC(C)=O)[C@@H]12)C(=O)[C@H]1O[C@@]31C (some centres unmarked) [NCGC00168883-03] | -2.1 | -116.882 | 3.17e-05 M | 3.17e-05 M |  |  |  |  | 
14 | C=CC/C=C\C/C=C\CCCCCCCc1cc(O)cc(O)c1 [NCGC00168928-02] |  | -22.946 | 4.53e-05 M | 4.53e-05 M |  |  |  |  | 
15 | COc1cc2occc2c(O[C@@H]2O[C@H](CO)[C@@H](O)[C@H](O)[C@H]2O)c1CCC(=O)O [NCGC00168932-02] | -3 | -83.984 | 1.59e-05 M | 1.59e-05 M |  |  |  |  | 
16 | CC(=O)O[C@@]1(C)C[C@@H](O)[C@]2(O)C=CO[C@@H](O[C@@H]3O[C@H](CO)[C@@H](O)[C@H](O)[C@H]3O)[C@@H]21 [NCGC00169032-03] |  | -81.683 | 1.42e-05 M |  |  |  | -3 | 1.42e-05 M | 1.21%
17 | C/C=C(/C)C(=O)O[C@H]1C=C(CO)C(=O)[C@H](OC(=O)/C(C)=C/CO)[C@H]1C(C)C [NCGC00169078-03] | -3 | -32.45 | 5.08e-05 M | 5.08e-05 M |  |  |  |  | 
18 | C=C1C(=O)O[C@@H]2C[C@H](C)[C@@H]3CC(=O)C(C)=C3C[C@H]12 [NCGC00169080-02] |  | -111.978 | 6.51e-05 M |  |  |  | -3 | 6.51e-05 M | -89.7%
19 | C=C(C)C(=O)O[C@H]1[C@H]2C(=C)C(=O)O[C@@H]2C[C@@H](C)/C=C\C(=O)[C@](C)(O)[C@@H]1OC(C)=O [NCGC00169210-02] |  | -39.663 | 3.55e-05 M |  |  |  | -3 | 3.55e-05 M | -40.2%
20 | C=C(C)C(=O)O[C@H]1[C@H]2C(=C)C(=O)O[C@@H]2C[C@@H](C)[C@@H]2O[C@@H]2C(=O)[C@](C)(O)[C@@H]1OC(=O)C(=C)C [NCGC00169479-03] | -3 | -35.91 | 3.55e-05 M | 3.55e-05 M |  |  |  |  | 
